For data set [1], the system named is Myzus persicae. The data set can be described thus: Myzus persicae oral test. The class given is in vivo. The note with it: 120 h, mixed population of green peach aphids, after 5 days, read-out: efficacy. As for the experimental part: Myzus persicae—Oral Test [table] To produce a suitable preparation of active compound, 1 part by weight of active compound is dissolved using the specified parts by weight of solvent and made up with water until the desired concentration is attained. 50 μl of the active ingredient formulation are transferred into microtitre plates and made up to a final volume of 200 μl with 150 μl of IPL41 insect medium (33%+15% sugar). Subsequently, the plates are sealed with parafilm, which a mixed population of green peach aphids (Myzus persicae) within a second microtitre plate is able to puncture and imbibe the solution through. After 5 days, the efficacy in % is determined. 100% means that all the aphids have been killed; 0% means that no aphids have been killed.

In another data set the test system is Ctenocephalides felis. The data set can be described thus: Ctenocephalides felis oral test. The class given is in vivo. Conditions: 48 h, 100 ppm in citrated cattle blood, unfed adult cat fleas, after 2 days, read-out: efficacy (kill in %). As to the method: Ctenocephalides felis—Oral Test [table] To produce a suitable active compound preparation, 10 mg of active compound are mixed with 0.5 ml of dimethyl sulfoxide. Dilution with citrated cattle blood gives the desired concentration. About 20 unfed adult cat fleas (Ctenocephalides felis) are placed into a chamber which is closed at the top and bottom with gauze. A metal cylinder whose bottom end is closed with parafilm is placed onto the chamber. The cylinder contains the blood/active compound formulation, which can be imbibed by the fleas through the parafilm membrane. After 2 days, the kill in % is determined. 100% means that all of the fleas have been killed; 0% means that none of the fleas have been killed.

The next data set concerns Phaedon cochleariae. The data set can be described thus: Phaedon cochleariae spray test. The class given is in vivo. Conditions: 100 g/ha, sprayed Chinese cabbage leaf discs, mustard beetle larvae, after 7 days. As to the method:
Phaedon cochleariae—Spray Test
(§1) To produce a suitable active compound preparation, 1 part by weight of active compound is dissolved using the stated parts by weight of solvent and made up with water containing an emulsifier concentration of 1000 ppm until the desired concentration is attained. To produce further test concentrations, the formulation is diluted with emulsifier-containing water.
Discs of Chinese cabbage leaves (Brassica pekinensis) are sprayed with an active compound formulation of the desired concentration and, after drying, populated with larvae of the mustard beetle (Phaedon cochleariae).
After 7 days, the efficacy in % is determined. 100% means that all the beetle larvae have been killed; 0% means that no beetle larvae have been killed.

A short description of data set [2]: log P by HPLC on reversed-phase column (C18), EEC Directive 79/831 Annex V.A8. The class given is physicochemical. As for the experimental part:
The log P values were determined according to EEC Directive 79/831 Annex V.A8 by HPLC (high-performance liquid chromatography) on a reversed-phase column (C18) using the following methods: ^[a] […] Calibration was carried out using a homologous series of straight-chain alkan-2-ones (having 3 to 16 carbon atoms) with known log P values. The values between successive alkanones are determined by linear regression.

In data set [3] the test system is Myzus persicae. As to the kind of experiment: Myzus persicae spray test. It counts as in vivo. Conditions: foliar, 120 h, sprayed Chinese cabbage leaf discs, all stages of the green peach aphid, after 5 days, read-out: efficacy. As to the method:
Myzus persicae—Spray Test [table] To produce a suitable active compound preparation, 1 part by weight of active compound is dissolved using the stated parts by weight of solvent and made up with water containing an emulsifier concentration of 1000 ppm until the desired concentration is attained. To produce further test concentrations, the formulation is diluted with emulsifier-containing water. Discs of Chinese cabbage leaves (Brassica pekinensis) infested by all stages of the green peach aphid (Myzus persicae) are sprayed with an active compound formulation of the desired concentration. After 5 days, the efficacy in % is determined. 100% means that all the aphids have been killed; 0% means that no aphids have been killed.

In another data set the test system is Spodoptera frugiperda. As to the kind of experiment: Spodoptera frugiperda spray test. It counts as in vivo. Conditions: foliar, 168 h, sprayed maize leaf discs, fall armyworm caterpillars, after 7 days, read-out: efficacy. As for the experimental part: Spodoptera frugiperda—Spray Test [table] To produce a suitable active compound preparation, 1 part by weight of active compound is dissolved using the stated parts by weight of solvent and made up with water containing an emulsifier concentration of 1000 ppm until the desired concentration is attained. To produce further test concentrations, the formulation is diluted with emulsifier-containing water. Leaf discs of maize (Zea mays) are sprayed with an active compound formulation of the desired concentration and, after drying, populated with caterpillars of the fall armyworm (Spodoptera frugiperda). After 7 days, the efficacy in % is determined. 100% means that all the caterpillars have been killed; 0% means that no caterpillar has been killed.

The next data set has as its system Boophilus microplus. The data set can be described thus: Boophilus microplus injection test. The class given is in vivo. Conditions: 20 μg/animal, injection into engorged adult female cattle ticks, assessed after 7 days by laying of fertile eggs. As for the experimental part: Boophilus microplus—Injection Test [table] To produce a suitable active compound preparation, 10 mg of active compound are mixed with 0.5 ml of solvent and the concentrate is diluted to the desired concentration with solvent. 1 μl of the active compound solution is injected into the abdomen of 5 engorged adult female cattle ticks (Boophilus microplus). The animals are transferred into dishes and kept in a climate-controlled room. Efficacy is assessed after 7 days by laying of fertile eggs. Eggs which are not visibly fertile are stored in a climate-controlled cabinet until the larvae hatch after about 42 days. An efficacy of 100% means that none of the ticks has laid any fertile eggs; 0% means that all the eggs are fertile.

The subject of the next data set is Tetranychus urticae. The data set can be described thus: Tetranychus urticae spray test, OP-resistant. It counts as in vivo. Conditions: 20 g/ha, sprayed bean leaf discs, all stages of the greenhouse red spider mite, after 6 days. As for the experimental part: Tetranychus urticae—Spray Test, OP-Resistant
as §1
Discs of bean leaves (Phaseolus vulgaris) infested with all stages of the greenhouse red spider mite (Tetranychus urticae) are sprayed with an active compound formulation of the desired concentration.
After 6 days, the efficacy in % is determined. 100% means that all the spider mites have been killed; 0% means that no spider mites have been killed.

[4] abbreviates: LC-UV in the acidic range, formic acid in water / acetonitrile, read-out: log P[acidic].
Setting [5] is: LC-UV in the neutral range, ammonium carbonate in water / acetonitrile, read-out: log P[neutral].

Like-named read-outs stand apart in the source and are kept apart here.

Results on five compounds are retold here after US11926623B2, “Heterocycle derivatives as pesticides” (Bayer Aktiengesellschaft, priority 2018, dated 2024).

On to `CCS(=O)(=O)c1c(-c2nc3cc(C(F)(F)F)cnc3n2C)nc(-c2ccc(C3(C#N)CC3)cc2)n1C` [Example I-5, 1-(4-{5-(Ethylsulfonyl)-1-methyl-4-[3-methyl-6-(trifluoromethyl)-3H-imidazo[4,5-b]pyridin-2-yl]-1H-imidazol-2-yl}phenyl)cyclopropanecarbonitrile], for which, in the data set on Myzus persicae [1], the pest or weed control at 4 ppm came to 100%. Further, the pest or weed control at 100 ppm in the data set on Ctenocephalides felis worked out at 100%. This compound also came in with an efficacy in the data set on Phaedon cochleariae of 100%. Moreover, the chromatographic logP in data set [2] (setting [4]) came to 3.14; in data set [2] (setting [5]), 3.07. In addition, the pest or weed control at 100 g/ha in the data set with Myzus persicae [3] and in the data set on Spodoptera frugiperda was 100% each time.
In the case of `CCS(=O)(=O)c1c(-c2nc3cc(C(F)(F)F)cnc3n2C)nc(-c2cnn(C3CC3)c2)n1C` [Example I-6], the values for the efficacy in the data set with Boophilus microplus and with Phaedon cochleariae were 95% and 100%, respectively. The pest or weed control at 4 ppm in the data set on Myzus persicae [1] amounted to 100%. In the data set with Ctenocephalides felis, the pest or weed control at 100 ppm was 100%. Also, the pest or weed control at 100 g/ha in the data set on Myzus persicae [3] and in the data set with Spodoptera frugiperda was 100% throughout.
`CCS(=O)(=O)c1c(-c2nc3cc(C(F)(F)F)cnc3n2C)nc(-n2ccc(C3CC3)n2)n1C` [Example I-9, 2-[2-(3-Cyclopropyl-1H-pyrazol-1-yl)-5-(ethylsulfonyl)-1-methyl-1H-imidazol-4-yl]-3-methyl-6-(trifluoromethyl)-3H-imidazo[4,5-b]pyridine]: the pest or weed control at 4 ppm in the data set with Myzus persicae [1] came out at 100%. Moreover, the pest or weed control at 100 ppm in the data set on Ctenocephalides felis came out at 90%. Moreover, the efficacy in the data set with Phaedon cochleariae is recorded as 100%. In addition, the chromatographic logP worked out at 3.46 in data set [2] (setting [4]) and 3.36 in data set [2] (setting [5]). In addition, the pest or weed control at 100 g/ha in the data set with Myzus persicae [3] and with Spodoptera frugiperda was 100% in each case.
Consider `CCS(=O)(=O)c1c(-c2nc3cc(C(F)(F)F)cnc3n2C)nc(-n2cc(Br)c(C3CC3)n2)n1C` [Example I-10], for which the efficacy came to 90% in the data set on Boophilus microplus, 90% in the data set with Tetranychus urticae and 100% in the data set on Phaedon cochleariae. For the same compound, in the data set on Myzus persicae [1], the pest or weed control at 4 ppm was found to be 100%. In addition, the pest or weed control at 100 ppm with Ctenocephalides felis was 90%. The pest or weed control at 100 g/ha in the data set on Myzus persicae [3] came to 90%; in the data set with Spodoptera frugiperda, 100%.
For the compound `CCS(=O)(=O)c1c(-c2nc3cc(C(F)(F)F)cnc3n2C)nc(-c2ccc(C3CC3)nc2)n1C` [Example I-14], in the data set with Myzus persicae [1], the pest or weed control at 4 ppm came to 100%. In addition, the pest or weed control at 100 ppm with Ctenocephalides felis came to 90%. In the data set with Phaedon cochleariae, this compound returned an efficacy of 100%. The pest or weed control at 100 g/ha in the data set on Myzus persicae [3] amounted to 90%; in the data set with Spodoptera frugiperda, 100%.
